Reference: patent publication US20120219615A1, “Therapeutic Use of a TLR Agonist and Combination Therapy” (The Trustees of the University of Pennsylvania, priority 2010, published 2012)
pEC50: −log10 of the molar value.

What was measured:
[1] = molecular target: T1, TLR3 (Homo sapiens, UniProt O15455); assay: Activity on TLR3; type: cell-based; conditions: concentrations up to 25 μM
T1 sequence (O15455 24-904): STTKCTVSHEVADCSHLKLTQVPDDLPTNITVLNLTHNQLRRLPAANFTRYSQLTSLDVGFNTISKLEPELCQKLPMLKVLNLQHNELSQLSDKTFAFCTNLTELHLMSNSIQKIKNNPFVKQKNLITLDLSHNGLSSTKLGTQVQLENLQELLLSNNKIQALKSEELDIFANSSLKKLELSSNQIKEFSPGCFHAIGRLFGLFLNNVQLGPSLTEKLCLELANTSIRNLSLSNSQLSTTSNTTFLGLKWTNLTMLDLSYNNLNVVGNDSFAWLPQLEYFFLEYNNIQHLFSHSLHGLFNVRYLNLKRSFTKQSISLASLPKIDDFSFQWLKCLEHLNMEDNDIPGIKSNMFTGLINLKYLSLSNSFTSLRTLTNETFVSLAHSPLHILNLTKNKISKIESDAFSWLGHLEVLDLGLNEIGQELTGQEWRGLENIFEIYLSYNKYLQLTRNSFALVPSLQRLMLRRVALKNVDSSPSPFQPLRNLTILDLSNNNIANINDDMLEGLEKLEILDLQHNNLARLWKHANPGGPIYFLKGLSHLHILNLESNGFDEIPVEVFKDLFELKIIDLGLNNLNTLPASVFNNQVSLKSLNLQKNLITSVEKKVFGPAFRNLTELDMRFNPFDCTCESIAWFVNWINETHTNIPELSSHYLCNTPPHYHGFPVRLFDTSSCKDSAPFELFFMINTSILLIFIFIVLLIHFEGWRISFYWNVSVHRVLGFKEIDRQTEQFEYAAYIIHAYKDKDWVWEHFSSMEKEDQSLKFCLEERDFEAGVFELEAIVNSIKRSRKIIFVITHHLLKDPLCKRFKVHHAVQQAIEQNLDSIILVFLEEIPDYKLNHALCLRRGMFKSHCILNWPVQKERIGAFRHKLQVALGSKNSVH
Procedure: (§1) The half-maximal effective concentration (EC50) for VTX-2337 activation of TLR8 and TLR7 was assessed in peripheral blood mononuclear cells (PBMCs) from 15 healthy donors and also in HEK293 cells transfected with TLR8 or TLR7 and an NF-κB driven reporter gene. […] Also it was observed that VTX-2337 had no activity on TLR2, TLR3, TLR4, TLR5, TLR6, or TLR9 at concentrations up to 25 μM.

[2] = molecular target: T2, TLR7 (Homo sapiens, UniProt Q9NYK1); assay: IFNα production in PBMCs (marker of TLR7 activation); type: cell-based; conditions: PBMCs from 15 healthy donors
T2 construct: expressed in transfected cells; host or cells: HEK293
T2 sequence (Q9NYK1 27-1049): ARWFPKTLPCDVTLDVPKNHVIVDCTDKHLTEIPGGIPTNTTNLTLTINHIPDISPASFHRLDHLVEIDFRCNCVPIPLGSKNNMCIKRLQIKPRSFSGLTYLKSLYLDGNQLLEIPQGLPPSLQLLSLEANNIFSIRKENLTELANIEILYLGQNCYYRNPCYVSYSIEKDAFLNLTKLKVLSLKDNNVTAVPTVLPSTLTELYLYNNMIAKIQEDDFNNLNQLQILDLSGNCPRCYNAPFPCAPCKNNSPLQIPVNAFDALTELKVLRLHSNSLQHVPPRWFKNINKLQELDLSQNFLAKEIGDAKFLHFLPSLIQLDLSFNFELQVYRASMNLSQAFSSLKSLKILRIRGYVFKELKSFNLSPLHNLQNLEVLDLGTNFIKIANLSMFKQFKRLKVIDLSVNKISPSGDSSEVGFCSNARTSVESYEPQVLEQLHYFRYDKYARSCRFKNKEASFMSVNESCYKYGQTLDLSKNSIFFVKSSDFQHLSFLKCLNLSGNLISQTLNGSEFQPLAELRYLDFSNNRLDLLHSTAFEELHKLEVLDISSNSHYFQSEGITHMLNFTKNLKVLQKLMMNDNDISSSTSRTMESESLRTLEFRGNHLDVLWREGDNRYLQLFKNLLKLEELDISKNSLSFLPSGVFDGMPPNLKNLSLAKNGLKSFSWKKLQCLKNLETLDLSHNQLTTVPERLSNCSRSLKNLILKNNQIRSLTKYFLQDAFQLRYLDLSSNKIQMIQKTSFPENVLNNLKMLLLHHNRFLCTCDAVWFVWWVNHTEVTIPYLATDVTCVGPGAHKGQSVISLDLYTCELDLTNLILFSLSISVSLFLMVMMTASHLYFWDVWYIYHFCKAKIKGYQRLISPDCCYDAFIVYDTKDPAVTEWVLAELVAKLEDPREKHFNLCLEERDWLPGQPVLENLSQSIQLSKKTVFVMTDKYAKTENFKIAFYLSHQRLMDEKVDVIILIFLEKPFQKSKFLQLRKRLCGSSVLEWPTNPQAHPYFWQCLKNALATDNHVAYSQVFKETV
Procedure: as §1

activity on TLR3 [1]: no activity
pEC50 [2]: < 5.48
Structure (SMILES): CCCN(CCC)C(=O)C1=Cc2ccc(-c3ccc(C(=O)N4CCCC4)cc3)cc2N=C(N)C1 [VTX-2337, 2-amino-N,N-dipropyl-8-(4-(pyrrolidine-1-carbonyl)phenyl)-3H-benzo[b]azepine-4-carboxamide]
